Data published in patent publication US20220249484A1, “METHODS FOR PREDICTING RESPONSIVENESS OF CANCER TO FERROPTOSIS-INDUCING THERAPIES” (Memorial Sloan Kettering Cancer Center, priority 2019, published 2022).

Experiments:
HCT116 cells [1] = assay: Sorafenib-induced ferroptosis; type: cell-based, human; settings: 10 μM sorafenib
Method: (§1) The effect of sorafenib on cell density-dependent ferroptosis was determined. First, HCT116 cells were seeded at a density of 0.5×10^5 cells/3.5 cm2 well (sparse) or 4×10^5 cells/3.5 cm2 well (confluent) and grown for 24 h. Cells were then treated with DMSO, 10 μM sorafenib, or 10 μM sorafenib and 2 μM Fer-1 as indicated. […] Second, ΔEcad or the parental HCT116 cells were seeded at 4×10^5 cells/3.5 cm2 well and grown for 24 h. Cells were then treated with 10 μM sorafenib and 2 μM Fer-1 as indicated. Third, HCT116 shNT or shMerlin cells, MSTO-211H shNT or shMerlin cells, HCT116 cells expressing YAP^S127A or the parental cells, MSTO-211H cells expressing YAP^S127A or the parental cells, and HCT116 shNT or shLats1/2 cells were seeded at high density and treated with 10 μM sorafenib and 2 μM Fer-1 as indicated.

211H mesothelioma cells = assay: Sorafenib-induced ferroptosis; type: cell-based, human; settings: 10 μM sorafenib
Method: as §1

malignant mesothelioma = settings: clinical trials; cited from earlier work
[2] = tested on: HCT116-derived xenograft tumors; assay: shLats1/2 HCT116 subcutaneous xenograft treated with IKE; type: in vivo, nude mice
Method: For shLats1/2 s.c. tumor models, female athymic nu/nu mice aged 6 to 8 weeks were injected in the right flank with 2×10^6 shNT HCT116 cells or shLats1/2 HCT116 cells. Tumors were measured with calipers every day. When tumors reached a mean volume of 90 mm^3, mice were randomized into four groups and treated with vehicle (65% D5W (5% dextrose in water), 5% Tween-80, 30% PEG-400) or 50 mg/kg IKE (65% D5W (5% dextrose in water), 5% Tween-80, 30% PEG-400) via IP injection once a day. At the end of the study, mice were euthanized with CO2 and tumors were taken for measurement of weight.
To determine whether Lats1/2, the kinases that directly phosphorylate and inactivate YAP, can have similar effects in vivo as Merlin, subcutaneous xenograft tumors were formed from HCT116 cells harboring hairpins targeting Lats1/2. In particular, HCT116 cells containing non-targeting hairpins or hairpins targeting both Lats1 and 2 were injected subcutaneously into nude mice (n=6 per group). Tumors were grown to a volume of 90 mm^3, at which point they were injected […] with 50 mg/kg imidazole ketone erastin (IKE) once a day for 12 days. Tumor volume was measured daily by caliper. Images of resected tumors and their masses were also quantified (FIGS. 19B-19C). Imidazole ketone erastin (IKE) is an erastin analog that is amenable for in vivo use because of the increased solubility and stability.

HCT116 cells [3] = assay: Ferroptosis in confluent HCT116 cells expressing shEcad, shMerlin or shLats1/2; type: cell-based, human; settings: cystine starvation or RSL3 plus
Method: (§2) Measurement of cell death, cell viability and lipid peroxidation. Cell death was analyzed by propidium iodide (Invitrogen, Waltham, Mass., USA) or SYTOX Green (Invitrogen) staining followed by microscopy or flow cytometry. For 3D spheroids, cell viability was determined using the CellTiter-Glo® 3D Cell Viability Assay (Promega, Madison, Wis., USA) according to the manufacturer's instructions. Viability was calculated by normalizing ATP levels to spheroids treated with normal full media. To analyze lipid peroxidation, cells were stained with 5 μM BODIPY-C11 (Invitrogen) for 30 minutes at 37° C. followed by flow cytometric analysis.
The involvement of the Hippo signaling in the regulation of ferroptosis by cell-cell contact was also assessed. Cells depleted of Ecad, Merlin, or Lats were generated using shRNA technology. HCT116 cells were infected by lentiviruses expressing shRNA sequences targeting Ecad (shEcad), Merlin (shMerlin), or Lats1/2 (shLats1/2), as indicated. Knockdown efficiency was confirmed by Western blot (FIG. 2B). […] Cell death was measured at 30 h using SYTOX Green staining followed by flow cytometry. Lipid ROS was measured at 24 hours using C11-BODIPY staining coupled with flow cytometry. […] Cell death was measured at 18 h and lipid ROS was measured at 14 h (FIG. 11A).

MEFs = assay: Ferroptosis and lipid ROS in MEFs; type: cell-based, mouse; settings: Ferrostatin-1 2 μM; cystine starvation, erastin or RSL3
Method: as §2
Merlin-regulated ferroptosis in cell density dependent manner was also observed in MEFs, which are not of epithelial origin. Cell death of MEFs with different cell density induced by cystine starvation for 12 h was measured by PI staining (FIG. 15A), and flow cytometry (FIG. 15B). The effect of cystine starvation on lipid ROS production in MEFs cells with different cell density (6 h treatment) is also shown in FIG. 15B. […] As shown in FIGS. 15A-15D, increased cell density mitigated both cell death and lipid ROS generation induced by cystine starvation, erastin and RSL3 in MEFs.
MEFs also regulated the activity of YAP at high density in a Merlin-dependent manner. MEFs seeded at increasing density were probed for YAP localization by Immunofluorescence (FIG. 15E). The effect of Merlin was assessed by infecting MEFs with shMerlin lentivirus and selected with puromycin. […] As shown in FIGS. 15E-15F, with increasing cell confluence, there was an increase of YAP nuclear exclusion in MEFs, which was attenuated by Merlin knockdown.

HCT116 cells [4] = assay: Cell death inhibitors in sparse HCT116 cells under cystine starvation or RSL3; type: cell-based, human; settings: 5×10^4 cells/well; for inhibition of RSL3-induced cell death: 5 μM RSL3 24 h, with cell death inhibitors; for inhibition of cystine starvation-induced cell death: cystine-free media 30 h, Fer-1 1 μM, DFO 50 μg/mL, Z-VAD-FMK 20 μM, GSK'872 10 μM
Method: as §2
To confirm that sparse HCT116 cells were dying from ferroptosis but not another cell death modality, various cell death inhibitors were tested: ferrostatin-1 (Fer-1) and DFO, which inhibit ferroptosis, Z-VAD-FMK, a pan-caspase inhibitor, and GSK'872, a selective RIPK3 inhibitor that blocks necroptosis. HCT116 cells were seeded at a density of 5×10^4 cells/well and grown for 24 hours. Cells were washed in PBS and cultured in cystine-free media with the indicated treatments for 30 h. Fer-1: Ferrostatin-1, 1 μM; DFO: iron chelator, 50 μg/mL; Z-VAD-FMK: pan-caspase inhibitor, 20 μM; GSK'872: RIPK3 inhibitor, 10 μM. HCT116 cells were seeded at a density of 5×10^4 cells/well and grown for 24 hours, then treated with 5 μM RSL3 and the indicated cell death inhibitors for 24 hours before measuring cell death. These experiments confirmed that cells underwent ferroptosis, instead of other modes of cell death, under these conditions (FIGS. 6C-6D). Similar cell density-dependent ferroptosis was previously observed by Seiler et al., Cell Metab. 8: 237-248 (2008) and Schneider et al., Neoplasia 12:254-263 (2010). In Seiler et al., mouse embryonic fibroblasts (MEFs) harboring two floxed GPX4 alleles survived and grew when seeded at high density, but upon passage at lower density they died rapidly. In Schneider et al., GPX4-deficient MEFs formed 3D tumor spheroids as well as wild-type MEFs by an unknown mechanism.

MSTO-211H cells = assay: Ferroptosis in confluent MSTO-211H cells (shMerlin, shNcad); type: cell-based, human
Method: as §2
To confirm the ferroptosis-regulating role of Merlin in mesothelioma cells, the effect of Merlin knockdown on ferroptosis sensitivity was assessed. MSTO-211H cells were infected with lentiviruses expressing shMerlin. RNAi knockdown efficiency was confirmed by Western blot (FIG. 3F). Then, shNT or shMerlin MSTO-211H cells were cultured to high confluence, at which point they were treated with media containing or lacking cystine, with or without Fer-1 for 24 h. Cell death was measured by SYTOX Green staining followed by flow cytometry (FIG. 3G). To measure lipid reactive species, shNT or shMerlin MSTO-211H cells were treated for 18 h, at which point they were stained with 2 μM C11-BODIPY for lipid ROS measurement (FIG. 311). Confluent MSTO-211H cells expressing shNT or shMerlin were also treated with 1 μM RSL3 with or without […] Fer-1. Cell death (left, 24 h after treatment) and lipid ROS production (right, 16 h) were measured (FIG. 13B).
Therefore, the cell density dependence of ferroptosis is not limited to epithelial cells expressing Ecad. […] To assess the expression of N-cadherin in MSTO-211H mesothelioma cells, the cells were cultivated at different cell densities, and the levels of Ncad, p-YAP and total YAP were analyzed by Western blot. […] Therefore, the potential role of Ncad in ferroptosis was tested. MSTO-211H cells were infected with lentiviruses expressing Ncad shRNA (shNcad) and selected with puromycin.

[5] = tested on: tumor spheroids of HCT116 cells; assay: Erastin-induced cell death in HCT116 tumor spheroids; type: cell-based, human; settings: 15 μM erastin with 2 μM Fer-1, 30 h
Method: Generation of three-dimensional spheroids. Spheroids were generated by plating tumor cells at 10^3/well into U-bottom Ultra Low Adherence (ULA) 96-well plates (Corning, Tewksbury, Mass., USA). Optimal three-dimensional structures were achieved by centrifugation at 600 g for 5 min followed by addition of 2.5% Matrigel (Corning). Plates were incubated for 72 h at 37° C., 5% CO2, 95% humidity for formation of a single spheroid of cells. Spheroids were then treated with erastin in fresh medium containing Matrigel for the indicated time.
as §2, with “To analyze lipid peroxidation, cells were stained with 5 μM BODIPY-C11 (Invitrogen) for 30 minutes at 37° C. followed by flow cytometric analysis.” left out
Tumor spheroids generated from shEcad, shMerlin and shLats1/2 cells were treated with 15 μM erastin with or without 2 μM Fer-1 for 30 h, and dead cells were stained green by SYTOX Green. Cell viability within the tumor spheroids was measured by determining ATP levels. […]

HCT116 cells [6] = assay: Ferroptosis in HCT116 cells expressing PAK-CAAX; type: cell-based, human
211H cells = assay: Verteporfin and cystine starvation-induced ferroptosis; type: cell-based, human; settings: verteporfin 0.5 μM
Method: (§3) To further confirm this conclusion, a pharmacological analysis was performed. As a transcriptional coactivator, YAP regulates the expression of multiple target genes through its interaction with the TEAD family of transcriptional factors. Verteporfin (VP), a pharmacological agent that can inhibit the interaction of YAP with the TEAD family members was used to determine the effect of Merlin on ferroptosis. […] YAP^S127A-expressing cells were also treated with verteporfin (0.5 μM) after 24 h of cystine starvation in shMerlin HCT116 or 211H cells.

HCT116 cells [7] = assay: as above; type: cell-based, human; settings: verteporfin 0.5 μM
Method: as §3

## CNC(=O)c1cc(Oc2ccc(NC(=O)Nc3ccc(Cl)c(C(F)(F)F)c3)cc2)ccn1 [sorafenib]
HCT116 cells [1]
  sorafenib-induced ferroptosis at high cell density after loss of Ecad, Lats1/2, inhibition of Merlin or activation of YAP: sensitize these cells to sorafenib-induced ferroptosis at high cell density
  sorafenib-induced ferroptosis, sparse versus confluent cells: could induce cell density-dependent ferroptosis
211H mesothelioma cells
  sorafenib-induced ferroptosis at high cell density after inhibition of Merlin or activation of YAP: sensitize these cells to sorafenib-induced ferroptosis at high cell density
Malignant mesothelioma
  clinical outcome in malignant mesothelioma: can stabilize, but not necessarily treat mesothelioma

## CC(C)Oc1ccc(C(=O)Cn2ccnc2)cc1-n1c(CN2CCN(C(=O)COc3ccc(Cl)cc3)CC2)nc2ccccc2c1=O [IKE, imidazole ketone erastin]
[2]; Lats1/2 depleted HCT116 tumors, 50 mg/kg IKE once a day
  mass of resected xenograft tumors: reduced
[2]; shLats1/2 HCT116 tumors, 50 mg/kg IKE once a day for 12 days
  xenograft tumor growth (volume): grew slowly or receded

## CCOC(=O)c1ccc(NC2CCCCC2)c(N)c1 [Fer-1, Ferrostatin-1]
HCT116 cells [3]
  block of cell death by Fer-1, confluent knockdown cells: blocked cell death
MEFs
  block of cell death and lipid ROS in confluent Merlin RNAi MEFs: blocked
HCT116 cells [4]
  inhibition of RSL3-induced cell death: inhibited
  inhibition of cystine starvation-induced cell death: inhibited
MSTO-211H cells; 1 μM RSL3 with 204 Fer-1
  block of RSL3-induced ferroptosis and lipid ROS in shMerlin cells by Fer-1: blocked
MSTO-211H cells; high confluence, 18 h
  block of lipid ROS production in cystine-deprived shMerlin cells by Fer-1: blocked
MSTO-211H cells; high confluence, cystine-free 24 h
  block of cystine deprivation-induced ferroptosis in shMerlin cells by Fer-1: blocked
[5]
  block of erastin-induced cell death in spheroids by Fer-1: blocked cell death
HCT116 cells [6]
  inhibition of RSL3-induced ferroptosis in PAK-CAAX cells by Fer-1: inhibited
  inhibition of cystine deprivation-induced ferroptosis in PAK-CAAX cells by Fer-1: inhibited

## Verteporfin
211H cells; high density
  effect of Merlin knockdown and YAP^S127A overexpression on cystine starvation-induced ferroptosis: ablated the effect of Merlin knockdown and YAP^S127A overexpression
211H cells; 24 h cystine starvation
  sensitivity of shMerlin cells to cystine starvation-induced ferroptosis: reduced cells sensitivity to ferroptosis
HCT116 cells [7]; high density
  effect of Merlin knockdown and YAP^S127A overexpression on cystine starvation-induced ferroptosis: ablated the effect of Merlin knockdown and YAP^S127A overexpression
HCT116 cells [7]; 24 h cystine starvation
  sensitivity of shMerlin cells to cystine starvation-induced ferroptosis: reduced cells sensitivity to ferroptosis

## CC(=O)N(O)CCCCCNC(=O)CCC(=O)N(O)CCCCCNC(=O)CCC(=O)N(O)CCCCCN [DFO]
HCT116 cells [4]
  inhibition of RSL3-induced cell death: inhibited
  inhibition of cystine starvation-induced cell death: inhibited
